Patent US11464770B2, “Anticancer pharmaceutical composition” (NATIONAL CANCER CENTER, priority 2016, dated 2022)

How the values were obtained:
zebrafish = experiment: Cardiotoxicity experiment using zebrafish (heart rate, lethality); format: in vivo; settings: 5 uM, n = 10
[1] = Cell based assay, cytotoxicity in RT4 papilloma cells (selectivity); design: species or system human; settings: human; RT4 cells (benign), 72 hours
[2] = tested on: MBT-2: Mouse bladder transitional cell carcinoma; experiment: Cell based assay, cytotoxicity in MBT-2 cells; settings: 72 hours
Description: (§1) Commercially available bladder cancer, prostate cancer, lung cancer, breast cancer, blood cancer, pancreatic cancer, colorectal cancer, brain cancer, neuroblastoma, melanoma, liver cancer, cervical carcinoma, ovarian cancer, renal cancer, and papilloma cell lines were each treated with trypsin-EDTA and cultured, followed by being seeded in each well of a 96 well plate. After 24 hours of treatment at constant temperature, the respective cells were treated with the candidate compound so that a final concentration became 0 to 2 μM. The treated cells were additionally cultured for 72 hours, and cell viability was measured by using an ATP detection method (CellTiter-Glo® Luminescent Cell Viability Assay, Promega).

[3] = tested on: KU-19-19: Bladder carcinoma; experiment: Cell based assay, cytotoxicity in KU19-19 cells; settings: Homo sapiens, 72 hours
Description: as §1

[4] = tested on: UM-UC-3: human urinary bladder transitional cell carcinoma; experiment: Cell based assay, cytotoxicity in UM-UC-3 cells; settings: UMUC3, 72 hours
Description: as §1

[5] = tested on: human lung cancer cell line (NCI-H1299); experiment: Tumor growth inhibition in animal model using NCI-H1299; format: in vivo; settings: intraperitoneally administered three times a week, NCI-H1299 animal model (FIG. 1)
[6] = tested on: human prostate cancer cell line (DU145); experiment: Tumor growth inhibition in animal model using DU145; format: in vivo; settings: intraperitoneally administered twice a week, DU145 animal model (FIG. 2)

Compound	Changes (%) in heart rate (zebrafish; mean)	Lethality (zebrafish)	IC50 at 72 h [1]	IC50 [2]	IC50 [3]	IC50 [4]	Effect of inhibiting tumor growth [5]	Effect of inhibiting tumor growth [6]
CC(=O)c1c([S+]([O-])Cc2ccc([N+](=O)[O-])cc2)[nH]c2c(Br)ccc(Cl)c2c1=O (centres unmarked) [Compound 33, 3-acetyl-8-bromo-5-chloro-2-((4-nitrobenzyl)sulfinyl)quinolin-4(1H)-one]	97.3%	0/10						
CC(=O)c1c([S+]([O-])Cc2ccc(SC(F)(F)F)cc2)[nH]c2c(Br)ccc(Cl)c2c1=O (centres unmarked) [Compound 56, 3-acetyl-8-bromo-5-chloro-2-((4-((trifluoromethyl)thio)benzyl)sulfinyl)quinolin-4(1H)-one]			> 10 µM	1.18 µM	0.9 µM	1.25 µM	effect of inhibiting tumor growth	effect of inhibiting tumor growth
